Assay results published in publication PMC8958505, “Discovery of Potential Neuroprotective Agents against Paclitaxel-Induced Peripheral Neuropathy” (Journal of Medicinal Chemistry, 2022).

Tests used:
primary cortical neurons [1] = assay: Synaptogenesis assay of primary cortical neurons (image-based HCS) against paclitaxel-induced neurotoxicity; type: cell-based, mouse; conditions: for activity at 0.01 µM / activity at 1 µM: Mus musculus, Primary cortical neuron; for activity at 0.01 µM: read-out: A: Synaptogenesis (% of control) of test compound (10 nM) + paclitaxel (1 μM); for activity at 1 µM: read-out: B: Synaptogenesis (% of control) of test compound (1000 nM) + paclitaxel (1 μM); for attenuation of synaptogenesis inhibited by paclitaxel (in words): test compound 10 and 1000 nM prior to paclitaxel 1 μM, Figure 1A
Text: (§1) Herein, we wish to report that an in vitro neurite outgrowth assay of cortical neurons integrated with an image-based high-content screening (HCS) platform is used to evaluate a commercially available library of 78 minoxidil-related derivatives,[22] leading to the identification of a series of analogues able to prevent or alleviate paclitaxel-induced neurotoxicity. The project began with screening compounds with the primary culture of cortical neurons from neonatal mice. More specifically, cerebral cortex neurons cultured from P0 C57BL/6J mouse pups were incubated with a test compound (10 and 1000 nM) prior to paclitaxel (1 μM) treatment. Subsequently, both neurite outgrowth and synaptogenesis were measured to evaluate the test compounds’ neuroprotective capacity. […] This unique feature is preserved for the core-structure screening of our in-house library in the following subject. Moreover, the substituent at the C4 position appears flexible in terms of structural diversity. Collectively, CSV0A024807, the only one displaying the best neuroprotective potency on both neurite outgrowth and synaptogenesis assays, was thus elected as a potential hit compound for further development.
(§2) Primary cortical or DRG cells were fixed with 4% paraformaldehyde for 15 min following compound and paclitaxel treatment. After washing with PBS, the fixed cells were permeabilized with PBS containing 0.05% Triton X-100 for 20 min and then blocked with commercial blocking buffer (#GTX30963; GeneTex, USA) at room temperature for 1 h. Subsequently, the cortical cells were stained for the extending processes and synaptic puncta by using anti-MAP2 (#MBS502140, 1:500; Mybiosource, USA) and anti-synaptophysin (#ab32127, 1:500; Abcam, UK) overnight. DRG cells were stained for the neurite and neuron nucleus by using anti-β III tubulin (#D71G9, 1:600; Cell Signaling, USA) and anti-NeuN monoclonal antibody (#MAB377, 1:400; Millipore, USA) overnight. On the second day, the samples were washed for 30 min with wash buffer and incubated with secondary antibodies (Alexa-488, 647 1:600; Thermo Fisher, USA) and 4 μg/mL Hoechst 33258 (#94403-1ML, 1:100; Merck, USA) at room temperature for 1 h. In the initial experiments of screening the potential neuroprotective compound for CIPN, ImageXpress^Micro (IXM) high-content imaging system (Molecular Devices, USA) driven by MetaXpress software was used. Images of treated cells were automatically acquired by using a 10× objective. Twenty-one images per well were taken in each of three channels (DAPI, FITC, and Cy5) to create a whole view of the entire neural network. The integrity of the neural network was evaluated using TIF images by importing them into MetaXpress software for analysis using the module for multiparameter, such as Neurite Outgrowth, Cell Scoring, and Transfluor. Furthermore, the score of synaptogenesis was analyzed in AcuityXpress software (Molecular Devices, USA).

primary cortical neurons [2] = assay: Neurite outgrowth assay of primary cortical neurons (image-based HCS) against paclitaxel-induced neurotoxicity; type: cell-based, mouse; conditions: for activity at 0.01 µM / activity at 1 µM: Mus musculus, Primary cortical neuron; for activity at 0.01 µM: read-out: C: Neurite outgrowth (% of control) of test compound (10 nM) + paclitaxel (1 μM); for activity at 1 µM: read-out: D: Neurite outgrowth (% of control) of test compound (1000 nM) + paclitaxel (1 μM)
Text: as §1, §2

[3] = test compound 10 nM + paclitaxel 1 μM, mean ± SE
[4] = test compound 1000 nM + paclitaxel 1 μM, mean ± SE

Row | SMILES | activity at 0.01 µM (primary cortical neurons [1]; [3]) [%] | activity at 1 µM (primary cortical neurons [1]; [4]) [%] | activity at 0.01 µM (primary cortical neurons [2]; [3]) [%] | activity at 1 µM (primary cortical neurons [2]; [4]) [%] | also measured
1 | Oc1ccccc1/C=N/Nc1cc(N2CCOCC2)nc(N2CCOCC2)n1 [CSV0B002764] | 48 ± 5 | 47 ± 3 | 66 ± 6 | 67 ± 4 | –
2 | CN(C)c1cc(NNC(=O)c2ccc(Cl)cc2)nc(N(C)C)n1 [CSV0A023089] | 38 ± 3 | 39 ± 6 | 47 ± 2 | 50 ± 5 | –
3 | COc1ccccc1/C=N/Nc1cc(N2CCCCC2)nc(N2CCCCC2)n1 [CSV0A061666] | 41 ± 1 | 42 ± 4 | 91 ± 3 | 89 ± 7 | –
4 | CCCN(CCC)c1cc(N/N=C/c2ccccc2OC)nc(N(CCC)CCC)n1 [CSV0A011999] | 33 ± 4 | 37 ± 2 | 45 ± 5 | 53 ± 3 | –
5 | CN(C)c1cc(N/N=C/c2cccc(O)c2)nc(N(C)C)n1 [CSV0A021190] | 37 ± 1 | 45 ± 1 | 43 ± 1 | 50 ± 2 | –
6 | CN(C)c1cc(N/N=C/c2ccccc2)nc(N(C)C)n1 [CSV0A047582] | – | – | – | – | activity at 0.01 µM (primary cortical neurons [1]): 73 ± 3%; activity at 1 µM (primary cortical neurons [1]): 77 ± 9%; activity at 0.01 µM (primary cortical neurons [2]): 69 ± 3%; activity at 1 µM (primary cortical neurons [2]): 67 ± 3%
7 | O=[N+]([O-])c1ccc(/C=N/Nc2cc(N3CCCCCC3)nc(N3CCCCCC3)n2)cc1 [CSV0A012753] | 60 ± 1 | 61 ± 4 | 77 ± 7 | 75 ± 7 | –
8 | C(=N\Nc1cc(N2CCOCC2)nc(N2CCOCC2)n1)/c1ccncc1 [CSV0A024809] | 38 ± 3 | 27 ± 0.5 | 77 ± 2 | 82 ± 3 | –
9 | CCN(CC)c1cc(N/N=C/c2ccncc2)nc(N(CC)CC)n1 [CSV0A029945] | 35 ± 6 | 50 ± 0.3 | 41 ± 8 | 75 ± 8 | –
10 | COc1cc(/C=N/Nc2cc(N3CCCCC3)nc(N3CCCCC3)n2)ccc1O [CSV0B006088] | 45 ± 6 | 52 ± 10 | 59 ± 5 | 66 ± 7 | –
11 | Cc1ccc(S)c(Nc2cc(N)nc(N)n2)n1 [CSV0A0544S0] | 63 ± 5 | 52 ± 8 | 60 ± 2 | 57 ± 5 | –
12 | COc1ccc(/C=N/Nc2cc(N3CCCC3)nc(N3CCCC3)n2)cc1 [CSV0A024813] | 98 ± 4 | 81 ± 5 | 66 ± 2 | 63 ± 2 | attenuation of synaptogenesis inhibited by paclitaxel (in words) (primary cortical neurons [1]): significantly attenuated
13 | CC(C)(C)c1ccc(C(=O)NNc2cc(N3CCCCC3)nc(N3CCCCC3)n2)cc1 [CSV0B001160] | 51 ± 5 | 41 ± 1 | 89 ± 7 | 80 ± 5 | –
14 | CCCN(CCC)c1cc(N/N=C/c2cc(Br)ccc2O)nc(N(CCC)CCC)n1 [CSV0A020330] | 22 ± 3 | 45 ± 7 | 27 ± 2 | 45 ± 3 | –
15 | Clc1ccc(/C=N/Nc2cc(N3CCCCCC3)nc(N3CCCCCC3)n2)cc1 [CSV0A027457] | 51 ± 4 | 39 ± 4 | 62 ± 4 | 51 ± 4 | –
16 | COc1cc(/C=N/Nc2cc(N3CCOCC3)nc(N3CCOCC3)n2)ccc1O [CSV0B002704] | 38 ± 2 | 29 ± 6 | 79 ± 7 | 65 ± 3 | –

Row | SMILES | activity at 0.01 µM (primary cortical neurons [1]; [3]) [%] | activity at 1 µM (primary cortical neurons [1]; [4]) [%] | activity at 0.01 µM (primary cortical neurons [2]; [3]) [%] | activity at 1 µM (primary cortical neurons [2]; [4]) [%] | also measured
17 | CN(C)c1ccc(/C=N/Nc2cc(N3CCOCC3)nc(N3CCOCC3)n2)cc1 [CSV0A041617] | 30 ± 1 | 30 ± 1 | 93 ± 5 | 94 ± 1 | –
18 | O=[N+]([O-])c1cccc(/C=N/Nc2cc(N3CCOCC3)nc(N3CCOCC3)n2)c1 [CSV0A024807] | 92 ± 2 | 97 ± 2 | 69 ± 3 | 60 ± 1 | attenuation of synaptogenesis inhibited by paclitaxel (in words) (primary cortical neurons [1]): significantly attenuated; rescue of neuronal damage caused by paclitaxel (immunofluorescence images) (primary cortical neurons [2]; pretreated, primary cortical neuron culture, Figure 1B): significantly rescued; protective effect in the neurite outgrowth assay (in words) (primary cortical neurons [2]; test compound 10 and 1000 nM prior to paclitaxel 1 μM, Figure 1A): significant protective effect
19 | CC(C)(C)c1ccc(C(=O)NNc2cc(N3CCCC3)nc(N3CCCC3)n2)cc1 [CSV0A062713] | 33 ± 1 | 36 ± 2 | 85 ± 8 | 74 ± 5 | –
20 | CCN(CC)c1ccc(/C=N/Nc2cc(N3CCCCC3)nc(N3CCCCC3)n2)cc1 [CSV0A023090] | 82 ± 4 | 86 ± 0.4 | 57 ± 4 | 58 ± 3 | –
21 | CCN(CC)c1cc(NNC(=O)c2ccc(C(C)(C)C)cc2)nc(N(CC)CC)n1 [CSV0B008884] | 35 ± 3 | 37 ± 3 | 41 ± 3 | 41 ± 4 | –
22 | CN(C)c1cc(N/N=C/c2ccccc2O)nc(N(C)C)n1 [CSV0A034003] | – | – | – | – | A: Synaptogenesis (% of control) of test compound (10 nM) + paclitaxel (1 μM) (primary cortical neurons [1]; [3]): 67±5 % of control; B: Synaptogenesis (% of control) of test compound (1000 nM) + paclitaxel (1 μM) (primary cortical neurons [1]; [4]): 66±9 % of control; C: Neurite outgrowth (% of control) of test compound (10 nM) + paclitaxel (1 μM) (primary cortical neurons [2]; [3]): 61±3 % of control; D: Neurite outgrowth (% of control) of test compound (1000 nM) + paclitaxel (1 μM) (primary cortical neurons [2]; [4]): 62±3 % of control
23 | CCCN(CCC)c1cc(NNC(=O)CCc2ccccc2)nc(N(CCC)CCC)n1 [CSV0D043578] | – | – | – | – | activity at 0.01 µM (primary cortical neurons [1]): 38 ± 3%; activity at 1 µM (primary cortical neurons [1]): 42 ± 4%; activity at 0.01 µM (primary cortical neurons [2]): 42 ± 5%; activity at 1 µM (primary cortical neurons [2]): 48 ± 1%
24 | CCN(CC)c1cc(N/N=C/c2ccc(O)c(OC)c2)nc(N(CC)CC)n1 [CSV0B009489] | 34 ± 3 | 36 ± 3 | 39 ± 4 | 41 ± 3 | –
25 | CCN(CC)c1cc(N/N=C/c2ccccc2OC)nc(N(CC)CC)n1 [CSV0A007655] | 39 ± 4 | 41 ± 2 | 45 ± 7 | 51 ± 3 | –
26 | COc1ccccc1/C=N/Nc1cc(N2CCOCC2)nc(N2CCOCC2)n1 [CSV0A013031] | 57 ± 1 | 33 ± 3 | 74 ± 3 | 67 ± 6 | –
27 | Oc1cccc(/C=N/Nc2cc(N3CCCC3)nc(N3CCCC3)n2)c1 [CSV0A055770] | 24 ± 2 | 25 ± 2 | 82 ± 4 | 75 ± 4 | –
28 | CN(C)c1cc(N/N=C/c2cccc([N+](=O)[O-])c2)nc(N(C)C)n1 [CSV0A027458] | 73 ± 3 | 73 ± 3 | 71 ± 3 | 65 ± 3 | –
29 | CN(C)c1ccc(/C=N/Nc2cc(N3CCCCC3)nc(N3CCCCC3)n2)cc1 [CSV0A041618] | 83 ± 2 | 64 ± 7 | 55 ± 2 | 55 ± 2 | attenuation of synaptogenesis inhibited by paclitaxel (in words) (primary cortical neurons [1]): significantly attenuated
30 | CCN(CC)c1ccc(/C=N/Nc2cc(N3CCOCC3)nc(N3CCOCC3)n2)cc1 [CSV0A024804] | 67 ± 8 | 62 ± 3 | 68 ± 2 | 66 ± 1 | –
31 | CN(C)c1cc(N/N=C/c2cc3c(c([N+](=O)[O-])c2)OCO3)nc(N(C)C)n1 [CSV0A047583] | 66 ± 4 | 69 ± 5 | 63 ± 3 | 61 ± 3 | –
32 | Oc1ccccc1/C=N/Nc1cc(N2CCCCC2)nc(N2CCCCC2)n1 [CSV0B023377] | 42 ± 1 | 42 ± 3 | 57 ± 2 | 57 ± 4 | –
